Laboratory results reported in publication PMC5572576 (The Lancet. Oncology, 2017).

System: FLT3-ITD receptors in Molm14 cells
Experiment: Ex vivo FLT3 plasma inhibitory activity
Assay type: cell-based
Details: by Day 8, majority of patients receiving ≥80 mg

Q: How did the FLT3 phosphorylation inhibition turn out when CCc1nc(C(N)=O)c(Nc2ccc(N3CCC(N4CCN(C)CC4)CC3)c(OC)c2)nc1NC1CCOCC1 [gilteritinib] was run?
A: ≥ 90%
